# Data taken from ChEMBL document CHEMBL4402510, “Caprazamycins: Promising lead structures acting on a novel antibacterial target MraY” (Eur J Med Chem, 2019).
# Tests used:
# [1] = target: T1, Phospho-N-acetylmuramoyl-pentapeptide-transferase (Bacillus subtilis (strain 168), UniProt Q03521); test: Inhibition of MraY in Bacillus subtilis
# T1 sequence (Q03521 whole entry): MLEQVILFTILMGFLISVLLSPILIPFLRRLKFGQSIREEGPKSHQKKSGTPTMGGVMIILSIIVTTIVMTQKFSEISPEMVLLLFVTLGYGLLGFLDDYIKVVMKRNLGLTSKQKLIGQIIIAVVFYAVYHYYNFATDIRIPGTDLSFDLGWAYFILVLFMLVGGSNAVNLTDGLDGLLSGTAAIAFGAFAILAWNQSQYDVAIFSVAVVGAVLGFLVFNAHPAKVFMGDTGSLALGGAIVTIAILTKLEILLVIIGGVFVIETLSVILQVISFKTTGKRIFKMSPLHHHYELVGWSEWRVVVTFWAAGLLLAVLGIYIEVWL
# [2] = tested on: Mycobacterium tuberculosis; test: Antibacterial activity against Mycobacterium tuberculosis H37Rv; format: functional
# [3] = Antibacterial activity against Mycobacterium avium subsp. avium ATCC 25291; format: functional
# Mycolicibacterium phlei = test: Antibacterial activity against Mycobacterium phlei; format: functional
# [4] = tested on: Mycobacterium avium subsp. paratuberculosis; test: Antibacterial activity against Mycobacterium avium subsp. paratuberculosis ATCC 43015; format: functional
# [5] = tested on: Mycobacterium tuberculosis; test: Antibacterial activity against Mycobacterium tuberculosis Kurono; format: functional
# [6] = tested on: Mycolicibacterium smegmatis; test: Antibacterial activity against Mycobacterium smegmatis ATCC 607; format: functional
# Escherichia coli = test: Antibacterial activity against Escherichia coli K-12; format: functional
# Staphylococcus aureus [7] = test: Antibacterial activity against methicillin resistant Staphylococcus aureus MS16526; format: functional
# Bacillus subtilis = test: Antibacterial activity against Bacillus subtilis PCI 219; format: functional
# [8] = tested on: Mycobacterium tuberculosis; test: Antibacterial activity against Mycobacterium tuberculosis JCM 6384; format: functional
# Streptococcus pneumoniae = test: Antibacterial activity against Streptococcus pneumoniae PCI 602; format: functional
# Staphylococcus aureus [9] = test: Antibacterial activity against Staphylococcus aureus FDA 209P; format: functional
# Staphylococcus aureus [10] = test: Antibacterial activity against methicillin resistant Staphylococcus aureus No. 5; format: functional
# Mycolicibacterium vaccae = test: Antibacterial activity against Mycobacterium vaccae ATCC 15483; format: functional
# [11] = target: T2, Phospho-N-acetylmuramoyl-pentapeptide-transferase (Aquifex aeolicus (strain VF5), UniProt O66465); test: Inhibition of MraY in Aquifex aeolicus
# T2 sequence (O66465 whole entry): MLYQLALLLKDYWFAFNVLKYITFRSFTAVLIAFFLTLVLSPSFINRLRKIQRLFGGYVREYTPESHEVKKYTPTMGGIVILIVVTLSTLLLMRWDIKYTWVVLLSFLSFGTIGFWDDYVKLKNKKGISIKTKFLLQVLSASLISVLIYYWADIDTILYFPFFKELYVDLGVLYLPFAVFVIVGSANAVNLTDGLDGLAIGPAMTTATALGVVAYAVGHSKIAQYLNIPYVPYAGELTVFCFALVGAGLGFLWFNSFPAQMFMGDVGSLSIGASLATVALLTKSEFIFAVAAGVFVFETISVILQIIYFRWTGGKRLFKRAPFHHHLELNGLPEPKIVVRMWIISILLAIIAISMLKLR
# Staphylococcus aureus [12] = test: Antibacterial activity against methicillin susceptible Staphylococcus aureus ATCC 29213; format: functional
# Enterococcus faecium = test: Antibacterial activity against Enterococcus faecium SR7917 (VRE); format: functional
# Enterococcus faecalis [13] = test: Antibacterial activity against Enterococcus faecalis SR7914 (VRE); format: functional
# Enterococcus faecalis [14] = test: Antibacterial activity against Enterococcus faecalis ATCC 29212; format: functional
# Staphylococcus aureus [15] = test: Antibacterial activity against methicillin resistant Staphylococcus aureus SR3637; format: functional
compound,measurement,setting,value
NC[C@H]1O[C@@H](O[C@@H](c2cn(CCCCCO)nn2)[C@H]2O[C@@H](n3ccc(=O)[nH]c3=O)[C@H](O)[C@@H]2O)[C@H](O)[C@@H]1O,IC50,[1],> 1000 µM
CCCCCNC(=O)C1=CCN(C)[C@@H]([C@H](O[C@@H]2O[C@H](CN)[C@@H](O)[C@H]2O)[C@H]2O[C@@H](n3ccc(=O)[nH]c3=O)[C@H](O)[C@@H]2O)C(=O)N1C,MIC,[2],12.5 µg/mL
same,MIC,[3],100 µg/mL
same,MIC,Mycolicibacterium phlei,> 100 µg/mL
same,MIC,[4],100 µg/mL
same,MIC,[5],6.25 µg/mL
same,MIC,[6],100 µg/mL
same,MIC,Escherichia coli,> 100 µg/mL
same,MIC,Staphylococcus aureus [7],> 100 µg/mL
same,MIC,Bacillus subtilis,> 100 µg/mL
same,MIC,[8],100 µg/mL
same,MIC,Streptococcus pneumoniae,> 100 µg/mL
same,MIC,Staphylococcus aureus [9],25 µg/mL
same,MIC,Staphylococcus aureus [10],> 100 µg/mL
same,MIC,Mycolicibacterium vaccae,> 100 µg/mL
CCCCCCCNC(=O)C1=CCN(C)[C@@H]([C@H](O[C@@H]2O[C@H](CN)[C@@H](O)[C@H]2O)[C@H]2O[C@@H](n3ccc(=O)[nH]c3=O)[C@H](O)[C@@H]2O)C(=O)N1C,MIC,[2],3.13 µg/mL
same,MIC,[3],25 µg/mL
same,MIC,Mycolicibacterium phlei,> 100 µg/mL
same,MIC,[4],25 µg/mL
same,MIC,[5],1.56 µg/mL
same,MIC,[6],25 µg/mL
same,MIC,Escherichia coli,> 100 µg/mL
same,MIC,Staphylococcus aureus [7],> 100 µg/mL
same,MIC,Bacillus subtilis,> 100 µg/mL
same,MIC,[8],50 µg/mL
same,MIC,Streptococcus pneumoniae,> 100 µg/mL
same,MIC,Staphylococcus aureus [9],6.25 µg/mL
same,MIC,Staphylococcus aureus [10],> 100 µg/mL
same,MIC,Mycolicibacterium vaccae,> 100 µg/mL
CN1C(=O)[C@H]([C@H](O[C@@H]2O[C@H](CN)[C@@H](O)[C@H]2O)[C@H]2O[C@@H](n3ccc(=O)[nH]c3=O)[C@H](O)[C@@H]2O)N(C)CC=C1C(=O)Nc1ccc(C2CCCCC2)cc1,MIC,[2],1.56 µg/mL
same,MIC,[3],1.56 µg/mL
same,MIC,Mycolicibacterium phlei,12.5 µg/mL
same,MIC,[4],0.78 µg/mL
same,MIC,[5],1.56 µg/mL
same,MIC,[6],1.56 µg/mL
same,MIC,Escherichia coli,6.25 µg/mL
same,MIC,Staphylococcus aureus [7],0.39 µg/mL
same,MIC,Bacillus subtilis,100 µg/mL
same,MIC,[8],0.39 µg/mL
same,MIC,Streptococcus pneumoniae,12.5 µg/mL
same,MIC,Staphylococcus aureus [9],100 µg/mL
same,MIC,Staphylococcus aureus [10],100 µg/mL
same,MIC,Mycolicibacterium vaccae,25 µg/mL
CCCCCCCCCCn1cc([C@H](O[C@@H]2O[C@H](CN)[C@@H](O)[C@H]2O)[C@H]2O[C@@H](n3ccc(=O)[nH]c3=O)[C@H](O)[C@@H]2O)nn1,IC50,[1],140 µM
C#C[C@H](O[C@@H]1O[C@H](CN)[C@@H](O)[C@H]1O)[C@H]1O[C@@H](n2ccc(=O)[nH]c2=O)[C@H](O)[C@@H]1O,IC50,[1],100 µM
NC[C@H]1O[C@@H](O[C@@H](c2cn(C3CCCCCC3)nn2)[C@H]2O[C@@H](n3ccc(=O)[nH]c3=O)[C@H](O)[C@@H]2O)[C@H](O)[C@@H]1O,IC50,[1],> 1000 µM
NC[C@H]1O[C@@H](O[C@@H](c2cn(CCCc3ccccc3)nn2)[C@H]2O[C@@H](n3ccc(=O)[nH]c3=O)[C@H](O)[C@@H]2O)[C@H](O)[C@@H]1O,IC50,[1],250 µM
NC[C@H]1O[C@@H](O[C@@H](c2cn(CCCCCCCCCCOc3ccc(C(=O)c4ccccc4)cc3)nn2)[C@H]2O[C@@H](n3ccc(=O)[nH]c3=O)[C@H](O)[C@@H]2O)[C@H](O)[C@@H]1O,IC50,[1],125 µM
NC[C@H]1O[C@@H](O[C@@H](c2cn(CCCn3ccnc3)nn2)[C@H]2O[C@@H](n3ccc(=O)[nH]c3=O)[C@H](O)[C@@H]2O)[C@H](O)[C@@H]1O,IC50,[1],> 1000 µM
NC[C@H]1O[C@@H](O[C@@H](c2cn(CCCOc3ccc(C(=O)c4ccccc4)cc3)nn2)[C@H]2O[C@@H](n3ccc(=O)[nH]c3=O)[C@H](O)[C@@H]2O)[C@H](O)[C@@H]1O [listing 1 of 2 here],IC50,[1],100 µM
same,IC50,[11],125 µM
CCCCCCCCCCCCCCCCNC(=O)C1=CCN(C)[C@@H]([C@H](O[C@@H]2O[C@H](CN)[C@@H](O)[C@H]2O)[C@H]2O[C@@H](n3ccc(=O)[nH]c3=O)[C@H](O)[C@@H]2O)C(=O)N1C,MIC,[2],3.13 µg/mL
same,MIC,[3],3.13 µg/mL
same,MIC,Mycolicibacterium phlei,> 100 µg/mL
same,MIC,[4],6.25 µg/mL
same,MIC,[5],3.13 µg/mL
same,MIC,[6],0.78 µg/mL
same,MIC,[8],3.13 µg/mL
same,MIC,Streptococcus pneumoniae,1.56 µg/mL
same,MIC,Staphylococcus aureus [9],0.78 µg/mL
same,MIC,Staphylococcus aureus [10],1.56 µg/mL
same,MIC,Mycolicibacterium vaccae,> 100 µg/mL
NC[C@H]1O[C@@H](O[C@@H](c2cn(CCc3ccc(-c4ccccc4)cc3)nn2)[C@H]2O[C@@H](n3ccc(=O)[nH]c3=O)[C@H](O)[C@@H]2O)[C@H](O)[C@@H]1O,IC50,[1],400 µM
NC[C@H]1O[C@@H](O[C@@H](c2cn(CCCCCOc3ccc(C(=O)c4ccccc4)cc3)nn2)[C@H]2O[C@@H](n3ccc(=O)[nH]c3=O)[C@H](O)[C@@H]2O)[C@H](O)[C@@H]1O,IC50,[1],100 µM
CCCCCCCCCCCCNC(=O)C1=CCN(C)[C@@H]([C@H](O[C@@H]2O[C@H](CN)[C@@H](O)[C@H]2O)[C@H]2O[C@@H](n3ccc(=O)[nH]c3=O)[C@H](O)[C@@H]2O)C(=O)N1C,MIC,[2],1.56 µg/mL
same,MIC,[3],3.13 µg/mL
same,MIC,Mycolicibacterium phlei,0.39 µg/mL
same,MIC,[5],1.56 µg/mL
same,MIC,[6],0.39 µg/mL
same,MIC,Escherichia coli,100 µg/mL
same,MIC,Staphylococcus aureus [7],6.25 µg/mL
same,MIC,Bacillus subtilis,0.78 µg/mL
same,MIC,[8],0.2 µg/mL
same,MIC,Streptococcus pneumoniae,6.25 µg/mL
same,MIC,Staphylococcus aureus [9],3.13 µg/mL
same,MIC,Staphylococcus aureus [10],12.5 µg/mL
same,MIC,Mycolicibacterium vaccae,1.56 µg/mL
NC[C@H]1O[C@@H](O[C@@H](c2cn(CCCCCN3CCCCC3)nn2)[C@H]2O[C@@H](n3ccc(=O)[nH]c3=O)[C@H](O)[C@@H]2O)[C@H](O)[C@@H]1O,IC50,[1],150 µM
NCCCCCn1cc([C@H](O[C@@H]2O[C@H](CN)[C@@H](O)[C@H]2O)[C@H]2O[C@@H](n3ccc(=O)[nH]c3=O)[C@H](O)[C@@H]2O)nn1,IC50,[1],> 1000 µM
"CCCCCCCCCCCCCCC[C@H](NC(=O)[C@@H](N)CCCNC(=N)N)C(=O)NC[C@@H]1CC2[C@H](C(=O)N1)[C@@H]([C@H]1O[C@@H](n3ccc(=O)[nH]c3=O)[C@H](O)[C@@H]1O)ON2CCCN (single isomer, unassigned)",MIC,Staphylococcus aureus [12],> 64 µg/mL
same,MIC,Enterococcus faecium,16 µg/mL
same,MIC,Enterococcus faecalis [13],32 µg/mL
same,MIC,Enterococcus faecalis [14],32 µg/mL
same,MIC,Staphylococcus aureus [15],32 µg/mL
NC[C@H]1O[C@@H](O[C@@H](c2cn(CCCO)nn2)[C@H]2O[C@@H](n3ccc(=O)[nH]c3=O)[C@H](O)[C@@H]2O)[C@H](O)[C@@H]1O,IC50,[1],> 1000 µM
NC[C@H]1O[C@@H](O[C@@H](c2cn(CCN3CCN(c4ccc(N)cn4)CC3)nn2)[C@H]2O[C@@H](n3ccc(=O)[nH]c3=O)[C@H](O)[C@@H]2O)[C@H](O)[C@@H]1O,IC50,[1],> 1000 µM
"CCCCCCCCCCCCCCCC(=O)NC[C@@H]1CC2[C@H](C(=O)N1CCCNC(=N)N)[C@@H]([C@H]1O[C@@H](n3ccc(=O)[nH]c3=O)[C@H](O)[C@@H]1O)ON2CCCN (single isomer, unassigned)",MIC,Staphylococcus aureus [12],16 µg/mL
same,MIC,Enterococcus faecium,8 µg/mL
same,MIC,Enterococcus faecalis [13],16 µg/mL
same,MIC,Enterococcus faecalis [14],16 µg/mL
same,MIC,Staphylococcus aureus [15],16 µg/mL
"CCCCCCCCCCCCCCC[C@H](NC(=O)[C@@H](N)CCCNC(=N)N)C(=O)NC[C@@H]1CC2[C@@H](C(=O)N1)[C@H]([C@H]1O[C@@H](n3ccc(=O)[nH]c3=O)[C@H](O)[C@@H]1O)ON2CCCN (single isomer, unassigned)",MIC,Staphylococcus aureus [12],> 64 µg/mL
same,MIC,Enterococcus faecium,16 µg/mL
same,MIC,Enterococcus faecalis [13],32 µg/mL
same,MIC,Enterococcus faecalis [14],16 µg/mL
same,MIC,Staphylococcus aureus [15],32 µg/mL
NC[C@H]1O[C@@H](O[C@@H](c2cn(CCCOc3ccc(C(=O)c4ccccc4)cc3)nn2)[C@H]2O[C@@H](n3ccc(=O)[nH]c3=O)[C@H](O)[C@@H]2O)[C@H](O)[C@@H]1O [listing 2 of 2 here],IC50,[1],100 µM
